Assay results published in patent publication US20230405014A1, “USE OF AN IRAK4 MODULATOR FOR GENE THERAPY” (Genzyme Corporation, priority 2022, published 2023).

How the values were obtained:
[1] = system: human monocytic dendritic cells; test: Cytokine release from human monocytic dendritic cells co-treated with AAV and KT-474 (Luminex); type: cell-based; settings: co-treatment with AAV at MOI 1e5, 24 hours, all KT-474 doses
Procedure: Preparation of Peripheral Blood Mononuclear Cells. Blood from leukopaks (Stem cell technologies) from different donors was decanted into 50 mL tubes and Dulbecco's phosphate buffered saline (DPBS) was added at a 1:1 ratio. The blood plus DBPS mix was gently pipetted into a separate 50 mL tube containing 15 mL Ficoll (GE17-5442-02) to ensure no mixing of the blood and Ficoll phases. The mixture was centrifuged at 2000 RPM for 25 minutes at room temperature (9 acceleration and no braking). The buffy coat containing the peripheral blood mononuclear cells (PBMCs) was collected, transferred to a new tube, and centrifuged for five minutes at 400 RCF. PBMCs were washed three times with phosphate buffered saline (PBS) containing 1% fetal bovine serum (FBS) or fetal calf serum (FCS) and counted.
Isolation of Monocytes. CD14+ monocytes were isolated from the PBMCs using CD14 MicroBeads following the manufacturer's protocol (Miltenyi Biotech, Germany, order no. 130-050-201, protocol available online world wide web miltenyibiotec.com/upload/assets/IM0001260.PDF). Briefly, PBMCs were incubated with […] CD14 MicroBeads per 10^7 total cells for 15 minutes at 2-8° C. PBMCs were applied onto a magnetic column (Miltenyi; world wide web miltenyibiotec.com/US-en/products/ls-columns.html #130-042-401) and unlabeled cells were allowed to pass through. After washing the column three times, the column was removed from the magnetic separator, (Miltneyi; world wide web miltenyibiotec.com/US-en/products/quadromacs-separator-and-starting-kits.html #130-091-051) placed on a collection tube, and magnetically labeled CD14+ monocytes were flushed out by pushing a plunger into the column.
Differentiation of Monocytes. […]
rAAV Production and Titration. rAAV vectors were produced using a standard triple transfection method (Sena-Esteves and Gao, Cold Spring Harb Protoc; doi:10.1101/pdb.top095513, 2020). All serotypes evaluated encode the same GFP transgene. Viruses were purified by cesium chloride ultracentrifugation and titrated using both silver staining and quantitative polymerase chain reaction (qPCR). […]

[2] = system: primary human monocytic dendritic cells; test: Cell viability of dendritic cells (Live/Dead staining, flow cytometry); type: cell-based; settings: AAV at MOI 1e5 and KT-474 co-treated, 24 hours, at doses tested, three donors (FIG. 3)
[3] = system: transgene LacZ specific CD8 T cells; test: In vivo mouse model of AAV-induced immune response, LacZ tetramer staining; design: species or system C57BL/6J mice; settings: KT-474 in chow 100 mg/kg from 15 days prior to intramuscular AAV
Procedure: In vivo mice experiments: C57BL/6J mice were purchased from Jackson Laboratories. 6-8-week male mice were divided into 3 groups—PBS group, AAV group and AAV+KT474 group all groups with 6 mice each. […] PBS group mice were injected intramuscularly with 100 ul PBS, AAV group was injected intramuscularly with 1e11 vg per quadricep muscle of both legs, 100 ul volume. AAV capsid used in the study had LacZ transgene. All animal experiments were conducted in accordance with the Institutional Animal Care and Use Committees at Sanofi, Framingham. Submandibular bleeds were performed weekly, and necropsy was performed three weeks post AAV injection.
The PBS and AAV only groups were fed regular chow and were bled on day 14 and necorpsied on day 21.
PBMC isolation 120 ul blood was collected in K2EDTA coated tubes. The blood was mixed with DBPS at 1:1 ration and pipetted into a separate tube containing Ficoll (GE17-5442-02) to ensure no mixing of the blood and Ficoll phases. The mixture was centrifuged at 2000 RPM for 25 minutes at room temperature (9 acceleration and no braking). […] PBMCs were washed three times with phosphate buffered saline (PBS) containing 1% fetal bovine serum (FBS) or fetal calf serum (FCS) and counted. The PBMC cells thus obtained were stained with different antibodies to quantify percentage of different immune cell subsets in peripheral blood. […]

With `Cn1c(=O)n(C2CCC(=O)NC2=O)c2cccc(C#CCOC3CCN(C[C@H]4CC[C@H](n5cc(NC(=O)c6cnn7ccc(N8C[C@H]9C[C@@H]8CO9)nc67)c(C(F)F)n5)CC4)CC3)c21` (stereo partly drawn) [KT-474] the “AAV-induced secretion of IL1b” value ([1]; three donors (FIG. 2A)) was “blocked”, the “AAV-induced secretion of IL6” value ([1]; three donors (FIG. 2B)) was “blocked” and the “AAV-induced secretion of TNFa” value ([1]; three donors (FIG. 2C)) was “blocked”. The “cellular toxicity (cell viability)” value [2] was “no cellular toxicity”, the “LacZ tetramer positive (transgene LacZ specific) CD8 T cells in PBMCs” value ([3]; peripheral blood, 14 days post AAV injection (FIG. 6A)) was “reduced significantly” and the “LacZ tetramer positive (transgene LacZ specific) CD8 T cells in spleen” value ([3]; splenocytes, 21 days post AAV injection (FIG. 6B)) was “reduced significantly”.
